According to publication PMC4876444, “Two-Photon Enzymatic Probes Visualizing Sub-cellular/Deep-brain Caspase Activities in Neurodegenerative Models” (Scientific Reports, 2016):

Assays:
HeLa cells = test: Permeability of free dye and probes in live cells (fluorescence imaging); assay type: cell-based, human; conditions: live HeLa cells, probes 24 μM (AAN 5 μM), 1 h, 37 °C, one-photon fluorescence imaging with LysoTracker
Procedure: Supplementary Figure 5. Detection of caspase activities in live mammalian cells. (a) One-photon images of AAN (5 μM)/probes (24 μM)/DMSO (blank) in live HeLa cells after 1-h incubation together with LysoTracker. (Panels 1-7) bright field; (Panels 8-14) λex = 405 nm, λem = 420-480 nm (indicative of probes, blue); (Panels 15-21) λex = 405 nm, λem = 470-500 nm (indicative of AAN, green); (Panels 22-28) LysoTracker (λex = 543 nm, λem = 560-615 nm, red); (Panels 29-35) merged images of blue/red channels. Scale bar: 20 μm. (b) Bioimaging of NIH/3T3 cells transfected with active caspase-1 (Panels 2/3/5/6; 50 ng)/caspase-3 (Panels 8/9; 15 ng)/caspase-8 (Panels 11/12; 5 ng) with/without inhibitor treatment (Panels 3/6/9/12, 50 μM of Z-VAD-FMK incubated for 1 h before probes were added) as well as control cells (Panels 1/4/7/10, no caspase transfection) by using C1RB (24 μM)/C1FS (12 μM) for caspase-1, C3RA (24 μM) for caspase-3 and C8RA (24 μM) for caspase-8. Cells were co-stained with membrane tracker. (Green) signals from caspase-cleaved probes (λex = 760 nm, λem = 480-550 nm for all probes, except for C1FS with λem = 450-550 nm). (Red) membrane tracker (λex = 650 nm, λem = 655-740 nm). (Inset) bright field. Scale bar = 10 μm. […]
XTT assay. The cytotoxicity of our probes was determined by using the XTT colorimetric cell proliferation kit (Roche) following manufacturer’s guidelines. […]

[1] = system: caspase-3/-7-like activities in brain slices; test: TPFM of caspase-3 activation in brain slices of ethanol-intoxicated mouse; conditions: 200 μM, 3 h prior to C3RA
Procedure: Figure 4 Imaging endogenous caspase activities in deep tissues. (a) TPFM of caspase-3 activation in brain slices of ethanol-intoxicated 7-day-old C57BL/6 mouse using C3RA (120 μM, 3 h). Top: 3D images of the mouse brain slice taken along the Z-axis from 0 to 160 μm at 10x magnification. Bottom: images taken at a depth of 120 μm at 40x magnification. […]: control slices (saline-treated); panels 2/6/4/8: treated with caspase-3/7 inhibitor I (200 μM, 3 h). Scale bar = 50 μm. (b) RFU readings extracted from (a) (FTPFM, blue bars) versus those from in vitro enzymatic assays using lysates from the same brain slices (RFU, orange bars). The signal from saline controls was set as “0” and that from ethanol-treated samples was set as “1” in RFU quantification. Due to the base-level active caspase-3 in the saline controls, negative readings were shown with inhibitor-treated samples. (c) WB analysis of caspase-3/-1/-8 activation in lysates of the same mouse brain slices shown in (a). (d) Normalized RFU readings from in vitro enzymatic assays using brain lysates (300 μg) of saline/ethanol treated mice after incubation with C1RB/C3RA/C8RA (6 μM) for 1 h at 37 °C.
All two-photon images were taken on a Leica TCS SP5X Confocal Microscope System. […]

| Structure (SMILES) | cell permeability (HeLa cells) | effect of inhibitor pre-treatment on C3RA fluorescence in brain slices [1] |
| --- | --- | --- |
| CC(=O)c1ccc2cc(N)ccc2c1 [AAN, 2-acetyl-6-aminonaphthalene, reference compound] | diffuse freely | – |
| COC[C@@H]1CCCN1S(=O)(=O)c1ccc2c(c1)C(=O)C(=O)N2 [caspase-3/7 inhibitor I, reference compound] | – | completely abolished the fluorescence |
